Laboratory results from ChEMBL document CHEMBL3112424, “Discovery and optimization of pyrimidone indoline amide PI3Kβ inhibitors for the treatment of phosphatase and tensin homologue (PTEN)-deficient cancers” (J Med Chem, 2014).

Columns and labels:
[1] = Apparent terminal half life in Balb/c mouse plasma at 3 mg/kg, iv by LC-MS/MS analysis; format: ADME, organism-based; design: dose 3 mg/kg, route intravenous; settings: read-out: betat1/2(app) (converted)
[2] = biological target: Phosphatidylinositol 4,5-bisphosphate 3-kinase catalytic subunit beta isoform (Homo sapiens, UniProt P42338); test: Inhibition of PI3Kbeta-mediated Akt phosphorylation at S473 in PTEN-deficient human PC3 cells after 0.5 to 2 hrs by Immunoblotting assay; format: cell-based, PC-3
Chain of Phosphatidylinositol 4,5-bisphosphate 3-kinase catalytic subunit beta isoform (P42338 whole entry, canonical isoform): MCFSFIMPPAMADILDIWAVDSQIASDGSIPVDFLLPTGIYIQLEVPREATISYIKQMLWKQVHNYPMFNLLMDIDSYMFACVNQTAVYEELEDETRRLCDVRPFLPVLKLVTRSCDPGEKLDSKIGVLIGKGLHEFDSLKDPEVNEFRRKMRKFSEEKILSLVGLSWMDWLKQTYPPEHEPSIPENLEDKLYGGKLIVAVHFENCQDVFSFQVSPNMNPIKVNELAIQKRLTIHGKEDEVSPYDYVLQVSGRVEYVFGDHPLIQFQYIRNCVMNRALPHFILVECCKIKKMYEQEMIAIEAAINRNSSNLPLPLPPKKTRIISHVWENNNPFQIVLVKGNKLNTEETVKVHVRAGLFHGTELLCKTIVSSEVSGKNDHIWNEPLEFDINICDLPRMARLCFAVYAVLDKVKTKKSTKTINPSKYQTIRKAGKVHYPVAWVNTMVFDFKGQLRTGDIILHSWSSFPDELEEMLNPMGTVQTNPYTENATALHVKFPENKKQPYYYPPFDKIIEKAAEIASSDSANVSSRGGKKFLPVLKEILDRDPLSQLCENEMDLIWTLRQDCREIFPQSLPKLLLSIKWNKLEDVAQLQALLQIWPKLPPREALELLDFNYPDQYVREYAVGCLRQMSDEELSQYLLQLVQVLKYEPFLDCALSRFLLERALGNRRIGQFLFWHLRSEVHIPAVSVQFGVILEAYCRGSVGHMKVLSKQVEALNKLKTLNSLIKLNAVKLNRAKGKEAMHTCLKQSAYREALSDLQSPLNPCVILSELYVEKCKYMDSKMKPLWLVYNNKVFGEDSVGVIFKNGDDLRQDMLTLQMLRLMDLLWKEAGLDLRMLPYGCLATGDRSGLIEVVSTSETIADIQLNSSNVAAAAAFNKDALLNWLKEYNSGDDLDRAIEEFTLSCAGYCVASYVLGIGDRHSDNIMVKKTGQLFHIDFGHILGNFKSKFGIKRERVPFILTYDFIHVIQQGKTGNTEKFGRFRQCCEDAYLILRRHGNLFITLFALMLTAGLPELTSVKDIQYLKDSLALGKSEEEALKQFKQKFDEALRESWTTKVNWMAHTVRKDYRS

[3] = Plasma concentration in SCID mouse xenografted with PTEN-deficient human PC3 cells at 100 mg/kg, po after 1 hr; format: ADME, organism-based, PC-3; design: dose 100 mg/kg, route oral
[4] = Oral bioavailability in Balb/c mouse plasma at 10 mg/kg by LC-MS/MS analysis; format: ADME, organism-based
[5] = Plasma concentration in SCID mouse xenografted with PTEN-deficient human PC3 cells at 100 mg/kg, po after 16 hrs; format: ADME, organism-based, PC-3; design: dose 100 mg/kg, route oral
[6] = tested on: Mus musculus; test: Toxicity in SCID mouse xenografted with BRAF-V600E/PTEN-deficient human UACC62 cells assessed as body weight loss at 150 mg/kg, po bid; format: organism-based, UACC-62; design: dose 150 mg/kg, route oral; settings: in vivo
[7] = tested on: UACC-62; test: Antitumor activity against BRAF-V600E/PTEN-deficient human UACC62 cells xenografted in SCID mouse assessed as tumor growth inhibition at 150 mg/kg, po bid measured on day 15; format: functional
[8] = tested on: Liver microsome; test: Metabolic stability in dog liver microsomes; format: ADME, Canis lupus familiaris
[9] = Tmax in Balb/c mouse plasma at 100 mg/kg, po by LC-MS/MS analysis; format: ADME, organism-based; design: dose 100 mg/kg, route oral
[10] = biological target: DNA-dependent protein kinase catalytic subunit (Homo sapiens, UniProt P78527); test: Inhibition of DNA-PK (unknown origin)
[11] = Clearance in Balb/c mouse plasma at 3 mg/kg, iv by LC-MS/MS analysis; format: ADME, organism-based; design: dose 3 mg/kg, route intravenous
[12] = Plasma concentration in SCID mouse xenografted with PTEN-deficient human PC3 cells at 100 mg/kg, po after 4 hrs; format: ADME, organism-based, PC-3; design: dose 100 mg/kg, route oral
[13] = biological target: Cytochrome P450 3A4 (Homo sapiens, UniProt P08684); test: Inhibition of recombinant human CYP3A4
Chain of Cytochrome P450 3A4 (P08684 whole entry): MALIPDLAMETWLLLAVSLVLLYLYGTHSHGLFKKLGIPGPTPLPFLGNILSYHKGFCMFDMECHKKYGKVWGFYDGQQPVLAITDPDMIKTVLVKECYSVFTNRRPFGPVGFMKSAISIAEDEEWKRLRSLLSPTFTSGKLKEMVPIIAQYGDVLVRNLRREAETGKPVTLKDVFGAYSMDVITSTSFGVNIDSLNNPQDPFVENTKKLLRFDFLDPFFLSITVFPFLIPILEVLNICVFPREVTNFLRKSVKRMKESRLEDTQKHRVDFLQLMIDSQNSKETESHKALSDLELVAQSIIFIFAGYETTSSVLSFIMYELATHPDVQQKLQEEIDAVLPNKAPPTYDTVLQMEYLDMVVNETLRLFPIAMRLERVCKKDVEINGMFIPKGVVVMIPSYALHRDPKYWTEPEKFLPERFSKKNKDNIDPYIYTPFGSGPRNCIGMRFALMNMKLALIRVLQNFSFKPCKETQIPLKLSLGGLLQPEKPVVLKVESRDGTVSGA

[14] = Tmax in Beagle dog at 10 mg/kg, po; format: ADME, organism-based, Canis lupus familiaris; design: dose 10 mg/kg, route oral; settings: in vivo
[15] = Plasma concentration in SCID mouse xenografted with PTEN-deficient human PC3 cells at 100 mg/kg, po after 24 hrs; format: ADME, organism-based, PC-3; design: dose 100 mg/kg, route oral
[16] = biological target: T1, Phosphatidylinositol 3-kinase C2 domain-containing subunit gamma (Homo sapiens, UniProt O75747); test: Inhibition of PI3KC2gamma (unknown origin)
T1 sequence (O75747 whole entry): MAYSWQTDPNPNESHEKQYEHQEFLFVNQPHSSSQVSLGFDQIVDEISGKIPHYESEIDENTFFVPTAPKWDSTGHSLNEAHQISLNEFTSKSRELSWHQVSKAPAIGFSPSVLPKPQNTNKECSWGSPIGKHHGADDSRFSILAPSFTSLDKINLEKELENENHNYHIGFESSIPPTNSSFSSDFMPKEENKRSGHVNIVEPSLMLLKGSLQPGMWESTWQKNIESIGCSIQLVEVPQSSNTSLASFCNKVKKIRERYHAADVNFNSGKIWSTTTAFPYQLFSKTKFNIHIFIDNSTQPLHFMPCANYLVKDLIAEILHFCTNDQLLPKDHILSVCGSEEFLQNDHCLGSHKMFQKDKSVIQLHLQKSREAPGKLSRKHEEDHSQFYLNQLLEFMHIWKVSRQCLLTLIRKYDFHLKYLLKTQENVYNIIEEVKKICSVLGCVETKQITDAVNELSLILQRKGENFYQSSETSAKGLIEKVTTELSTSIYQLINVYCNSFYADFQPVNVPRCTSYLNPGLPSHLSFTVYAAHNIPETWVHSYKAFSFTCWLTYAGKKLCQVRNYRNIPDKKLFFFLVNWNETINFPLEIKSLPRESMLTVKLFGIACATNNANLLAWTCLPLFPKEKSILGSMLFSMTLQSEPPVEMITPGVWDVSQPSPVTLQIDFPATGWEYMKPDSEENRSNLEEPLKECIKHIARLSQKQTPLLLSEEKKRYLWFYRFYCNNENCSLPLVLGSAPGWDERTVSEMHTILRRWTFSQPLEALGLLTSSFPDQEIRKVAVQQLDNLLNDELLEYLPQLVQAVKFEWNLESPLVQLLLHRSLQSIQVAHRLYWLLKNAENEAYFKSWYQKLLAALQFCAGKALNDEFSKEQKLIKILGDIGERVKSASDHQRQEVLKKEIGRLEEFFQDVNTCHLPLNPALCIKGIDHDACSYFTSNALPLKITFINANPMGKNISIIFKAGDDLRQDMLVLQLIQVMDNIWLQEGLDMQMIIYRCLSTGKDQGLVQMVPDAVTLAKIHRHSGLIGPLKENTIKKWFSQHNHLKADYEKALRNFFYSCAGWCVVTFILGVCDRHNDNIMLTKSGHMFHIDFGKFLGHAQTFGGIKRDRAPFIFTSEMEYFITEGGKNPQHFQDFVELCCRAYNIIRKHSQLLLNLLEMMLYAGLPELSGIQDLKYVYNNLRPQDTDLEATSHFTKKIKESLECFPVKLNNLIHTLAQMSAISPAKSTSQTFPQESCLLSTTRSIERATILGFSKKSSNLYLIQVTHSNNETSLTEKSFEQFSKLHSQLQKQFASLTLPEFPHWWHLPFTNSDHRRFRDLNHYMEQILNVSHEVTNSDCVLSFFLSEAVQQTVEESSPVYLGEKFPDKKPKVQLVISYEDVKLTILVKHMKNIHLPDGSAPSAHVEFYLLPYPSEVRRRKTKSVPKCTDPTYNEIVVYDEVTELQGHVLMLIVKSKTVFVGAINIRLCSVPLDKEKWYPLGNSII

[17] = biological target: Phosphatidylinositol 4,5-bisphosphate 3-kinase catalytic subunit gamma isoform (Homo sapiens, UniProt P48736); test: Inhibition of C-terminal ploy-His-tagged human PI3Kgamma expressed in baculovirus-infected sf9 cells using PI(4,5)P2 as substrate after 15 mins by HTRF assay
Chain of Phosphatidylinositol 4,5-bisphosphate 3-kinase catalytic subunit gamma isoform (P48736 whole entry, canonical isoform): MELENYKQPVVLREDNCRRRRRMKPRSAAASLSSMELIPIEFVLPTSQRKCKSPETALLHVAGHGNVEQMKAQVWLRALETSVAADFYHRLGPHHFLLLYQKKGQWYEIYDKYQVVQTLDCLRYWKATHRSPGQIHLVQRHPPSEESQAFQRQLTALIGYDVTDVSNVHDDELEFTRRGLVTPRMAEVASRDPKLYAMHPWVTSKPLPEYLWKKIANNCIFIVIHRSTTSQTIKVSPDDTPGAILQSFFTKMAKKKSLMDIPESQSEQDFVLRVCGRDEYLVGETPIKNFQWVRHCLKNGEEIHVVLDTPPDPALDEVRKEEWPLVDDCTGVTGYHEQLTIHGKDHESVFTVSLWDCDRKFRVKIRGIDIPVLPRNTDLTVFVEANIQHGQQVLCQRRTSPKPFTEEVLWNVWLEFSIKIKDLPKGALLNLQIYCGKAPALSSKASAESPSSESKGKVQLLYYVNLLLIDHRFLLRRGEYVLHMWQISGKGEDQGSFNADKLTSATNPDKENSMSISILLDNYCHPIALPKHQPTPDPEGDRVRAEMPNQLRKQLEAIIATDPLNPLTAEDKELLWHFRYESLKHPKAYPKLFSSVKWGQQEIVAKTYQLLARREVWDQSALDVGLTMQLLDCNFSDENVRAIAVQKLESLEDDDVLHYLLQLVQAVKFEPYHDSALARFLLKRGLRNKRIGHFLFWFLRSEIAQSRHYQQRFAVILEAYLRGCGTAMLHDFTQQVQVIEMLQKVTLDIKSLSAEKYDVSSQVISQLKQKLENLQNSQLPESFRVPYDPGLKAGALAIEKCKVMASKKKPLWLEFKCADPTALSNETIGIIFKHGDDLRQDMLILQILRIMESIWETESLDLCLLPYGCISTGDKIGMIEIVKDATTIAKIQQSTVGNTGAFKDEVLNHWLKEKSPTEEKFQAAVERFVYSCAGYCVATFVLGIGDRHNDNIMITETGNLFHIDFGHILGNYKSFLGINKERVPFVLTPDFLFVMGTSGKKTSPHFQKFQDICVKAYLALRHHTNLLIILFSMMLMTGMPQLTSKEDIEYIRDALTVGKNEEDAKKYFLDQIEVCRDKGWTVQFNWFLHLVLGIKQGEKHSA

[18] = tested on: Mus musculus; test: In vivo inhibition of PI3Kbeta in tumor of po dosed SCID mouse xenografted with PTEN-deficient human PC3 cells assessed as inhibition of Akt phosphorylation at S473; format: functional, organism-based; settings: PC-3
[19] = Tmax in Beagle dog at 3 mg/kg, iv; format: ADME, organism-based, Canis lupus familiaris; design: dose 3 mg/kg, route intravenous; settings: in vivo
[20] = biological target: Phosphatidylinositol 3-kinase catalytic subunit type 3 (Homo sapiens, UniProt Q8NEB9); test: Inhibition of VPS34 (unknown origin)
Chain of Phosphatidylinositol 3-kinase catalytic subunit type 3 (Q8NEB9 whole entry): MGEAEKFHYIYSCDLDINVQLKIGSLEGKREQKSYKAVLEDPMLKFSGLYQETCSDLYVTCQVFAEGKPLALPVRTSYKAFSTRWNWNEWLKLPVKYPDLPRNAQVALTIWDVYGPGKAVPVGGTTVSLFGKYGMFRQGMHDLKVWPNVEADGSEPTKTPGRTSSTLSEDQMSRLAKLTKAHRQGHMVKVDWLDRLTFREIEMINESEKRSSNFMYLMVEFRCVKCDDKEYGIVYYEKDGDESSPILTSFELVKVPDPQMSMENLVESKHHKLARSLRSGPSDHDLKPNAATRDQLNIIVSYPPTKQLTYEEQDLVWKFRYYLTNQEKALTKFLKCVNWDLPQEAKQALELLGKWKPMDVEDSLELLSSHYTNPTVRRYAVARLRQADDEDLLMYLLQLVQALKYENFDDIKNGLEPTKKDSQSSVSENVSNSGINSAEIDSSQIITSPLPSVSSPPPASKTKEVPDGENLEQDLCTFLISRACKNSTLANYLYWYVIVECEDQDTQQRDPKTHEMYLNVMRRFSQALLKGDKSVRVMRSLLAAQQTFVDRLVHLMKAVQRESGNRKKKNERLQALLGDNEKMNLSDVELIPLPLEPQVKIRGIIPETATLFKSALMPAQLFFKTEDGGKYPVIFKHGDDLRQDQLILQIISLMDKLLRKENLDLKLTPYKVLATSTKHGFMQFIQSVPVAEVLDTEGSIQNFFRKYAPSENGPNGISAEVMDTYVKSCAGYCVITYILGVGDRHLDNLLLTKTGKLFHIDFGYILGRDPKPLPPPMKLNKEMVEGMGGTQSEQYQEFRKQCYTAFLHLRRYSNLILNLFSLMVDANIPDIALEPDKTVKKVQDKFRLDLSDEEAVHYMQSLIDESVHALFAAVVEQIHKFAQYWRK

[21] = Half life in nude rat at 3 mg/kg, iv; format: ADME, organism-based; design: dose 3 mg/kg, route intravenous; settings: in vivo
[22] = Clearance in nude rat at 3 mg/kg, iv; format: ADME, organism-based; design: dose 3 mg/kg, route intravenous; settings: in vivo
[23] = tested on: Plasma; test: Fraction unbound in SCID mouse plasma xenografted with BRAF-V600E/PTEN-deficient human UACC62 cells at 100 mg/kg, po; format: ADME, organism-based, UACC-62; design: dose 100 mg/kg, route oral; settings: in vivo
[24] = Tmax in Balb/c mouse plasma at 10 mg/kg, po by LC-MS/MS analysis; format: ADME, organism-based; design: dose 10 mg/kg, route oral
[25] = AUC (infinity) in Balb/c mouse plasma at 100 mg/kg, po by LC-MS/MS analysis; format: ADME, organism-based; design: time infinity, dose 100 mg/kg, route oral

C[C@H]1Cc2ccccc2N1C(=O)Cc1nc(N2CCOCC2)cc(=O)[nH]1 [SAR-260301]
half-life [1]: 52.2 min
IC50 [2]: 49 nM
concentration at 1 h [3]: 24900 nM
bioavailability [4]: 30%
concentration at 16 h [5]: 26 nM
Activity [6]: Non-toxic
T/C [7]: 39%
Stability [8]: 5%
Tmax [9]: 15 min
IC50 [10]: 2000 nM
clearance [11]: 83.3 mL/min/kg
concentration at 4 h [12]: 14200 nM
IC50 [13]: 40000 nM
Tmax [14]: 30 min
concentration at 24 h [15]: 76 nM
IC50 [16]: 3810 nM
IC50 [17]: 10000 nM
EC50 [18]: 680 nM
Tmax [19]: 30 min
IC50 [20]: 183 nM
half-life [21]: 52.2 min
clearance [22]: 56.7 mL/min/kg
Cp(f) [23]: 1820 nM
Tmax [24]: 15 min
AUC(0-inf) [25]: 11000 ng·h/mL
